Laboratory results reported in US7186701B2, “Dehydrating agent and method for dehydrating moist article using the agent and dehydrated article obtained by the method” (Kabushiki Kaisha Hayashibara Seibutsu Kagaku Kenkyujo, priority 2001, dated 2007).

Key:
[1] = system: α-isomaltosylglucosaccharide-forming enzyme; test: Specificity of transfer acceptor (C9 enzyme); assay type: biochemical, Bacillus globisporus C9 strain; design: key: −: no saccharide-transferred product was detected through transferring reaction to acceptor; ±: a saccharide-transferred product was detected in an amount of less than one percent through transfer reaction to acceptor; +: a saccharide-transferred product was detected in an amount of at least one percent but less than ten percent through transferring reaction to acceptor; ++: a saccharide-transferred product was detected in an amount of at least ten percent through transferring reaction to acceptor; conditions: acceptor 1.6%, PINE-DEX #100 donor 4%, one unit/g donor, 30° C., pH 6.0, 24 hours
Experimental: (§1) A variety of saccharides were tested whether they could be used as transferring-acceptors for the α-isomaltosylglucosaccharide-forming enzyme. A solution of D-glucose, D-xylose, L-xylose, D-galactose, D-fructose, D-mannose, D-arabinose, D-fucose, L-sorbose, L-rhamnose, methyl-α-glucopyranoside, methyl-β-glucopyranoside, N-acetyl-glucosamine, sorbitol, α,α-trehalose, isomaltose, isomaltotriose, cellobiose, gentibiose, maltitol, lactose, sucrose, α-cyclodextrin, β-cyclodextrin, or γ-cyclodextrin was prepared. […] The reaction mixtures after the enzymatic reactions were analyzed on gas chromatography (abbreviated as “GLC” hereinafter) for monosaccharides and disaccharides as acceptors, and on HPLC for trisaccharides and higher saccharides as acceptors to confirm whether these saccharides could be used as their transfer acceptors. In the case of performing GLC, the following apparatuses and conditions were used: […] In the case of HPLC analysis, the apparatuses and conditions used were: HPLC apparatus, “CCPD” commercialized by Tosoh Corporation, Tokyo, Japan; column, “ODS-AQ-303” commercialized by YMC Co., Ltd., Tokyo, Japan; eluent, water at a flow rate of 0.5 ml/min; and detection, a differential refractometer.

[2] = system: α-isomaltosylglucosaccharide-forming enzyme; test: Specificity of transfer acceptor (C11 enzyme); assay type: biochemical, Bacillus globisporus C11 strain; design: key: −: no saccharide-transferred product was detected through transferring reaction to acceptor; ±: a saccharide-transferred product was detected in an amount of less than one percent through transfer reaction to acceptor; +: a saccharide-transferred product was detected in an amount of at least one percent but less than ten percent through transferring reaction to acceptor; ++: a saccharide-transferred product was detected in an amount of at least ten percent through transferring reaction to acceptor; conditions: acceptor 1.6%, PINE-DEX #100 donor 4%, one unit/g donor, 30° C., pH 6.0, 24 hours
Experimental: as §1

Row | SMILES | Product of saccharide transferring reaction, Enzyme of C9 strain [1] | Product of saccharide transferring reaction, Enzyme of C11 strain [2]
1 | O=C[C@H](O)[C@@H](O)[C@H](O[C@@H]1O[C@H](CO)[C@@H](O)[C@H](O)[C@H]1O)[C@H](O)CO [Cellobiose, cellobiose] | ++ (a saccharide-transferred product was detected in an amount of at least ten percent through transferring reaction to acceptor) | ++ (a saccharide-transferred product was detected in an amount of at least ten percent through transferring reaction to acceptor)
2 | O=C[C@@H](O)[C@H](O)[C@H](O)CO [D-Arabinose, D-arabinose] | ± (a saccharide-transferred product was detected in an amount of less than one percent through transfer reaction to acceptor) | ± (a saccharide-transferred product was detected in an amount of less than one percent through transfer reaction to acceptor)
3 | O=C(CO)[C@@H](O)[C@H](O)[C@H](O)CO [D-Fructose, D-fructose] | + (a saccharide-transferred product was detected in an amount of at least one percent but less than ten percent through transferring reaction to acceptor) | + (a saccharide-transferred product was detected in an amount of at least one percent but less than ten percent through transferring reaction to acceptor)
4 | C[C@@H](O)[C@H](O)[C@H](O)[C@@H](O)C=O [D-Fucose, D-fucose] | + (a saccharide-transferred product was detected in an amount of at least one percent but less than ten percent through transferring reaction to acceptor) | + (a saccharide-transferred product was detected in an amount of at least one percent but less than ten percent through transferring reaction to acceptor)
5 | O=C[C@H](O)[C@@H](O)[C@@H](O)[C@H](O)CO [D-Galactose, D-galactose] | + (a saccharide-transferred product was detected in an amount of at least one percent but less than ten percent through transferring reaction to acceptor) | + (a saccharide-transferred product was detected in an amount of at least one percent but less than ten percent through transferring reaction to acceptor)
6 | O=C[C@@H](O)[C@@H](O)[C@H](O)[C@H](O)CO [D-Mannose, D-mannose] | − | −
7 | O=C[C@H](O)[C@@H](O)[C@H](O)CO [D-Xylose, D-xylose] | ++ (a saccharide-transferred product was detected in an amount of at least ten percent through transferring reaction to acceptor) | ++ (a saccharide-transferred product was detected in an amount of at least ten percent through transferring reaction to acceptor)
8 | OC[C@H]1O[C@@H](OC[C@H]2OC(O)[C@H](O)[C@@H](O)[C@@H]2O)[C@H](O)[C@@H](O)[C@@H]1O (some centres unmarked) [Gentibiose, gentibiose] | ++ (a saccharide-transferred product was detected in an amount of at least ten percent through transferring reaction to acceptor) | ++ (a saccharide-transferred product was detected in an amount of at least ten percent through transferring reaction to acceptor)
9 | OC[C@H]1O[C@H](OC[C@H]2OC(O)[C@H](O)[C@@H](O)[C@@H]2O)[C@H](O)[C@@H](O)[C@@H]1O (some centres unmarked) [Isomaltose, isomaltose] | ++ (a saccharide-transferred product was detected in an amount of at least ten percent through transferring reaction to acceptor) | ++ (a saccharide-transferred product was detected in an amount of at least ten percent through transferring reaction to acceptor)
10 | OC[C@H]1O[C@H](OC[C@H]2O[C@H](OC[C@H]3OC(O)[C@H](O)[C@@H](O)[C@@H]3O)[C@H](O)[C@@H](O)[C@@H]2O)[C@H](O)[C@@H](O)[C@@H]1O (some centres unmarked) [Isomaltotriose, isomaltotriose] | ++ (a saccharide-transferred product was detected in an amount of at least ten percent through transferring reaction to acceptor) | ++ (a saccharide-transferred product was detected in an amount of at least ten percent through transferring reaction to acceptor)
11 | C[C@H](O)[C@H](O)[C@@H](O)[C@@H](O)C=O [L-Rhamnose, L-rhamnose] | − | −
12 | O=C(CO)[C@@H](O)[C@H](O)[C@@H](O)CO [L-Sorbose, L-sorbose] | + (a saccharide-transferred product was detected in an amount of at least one percent but less than ten percent through transferring reaction to acceptor) | + (a saccharide-transferred product was detected in an amount of at least one percent but less than ten percent through transferring reaction to acceptor)
13 | O=C[C@@H](O)[C@H](O)[C@@H](O)CO [L-Xylose, L-xylose] | ++ (a saccharide-transferred product was detected in an amount of at least ten percent through transferring reaction to acceptor) | ++ (a saccharide-transferred product was detected in an amount of at least ten percent through transferring reaction to acceptor)
14 | OC[C@H]1O[C@@H](O[C@H]2[C@H](O)[C@@H](O)C(O)O[C@@H]2CO)[C@H](O)[C@@H](O)[C@H]1O (some centres unmarked) [Lactose, lactose] | ++ (a saccharide-transferred product was detected in an amount of at least ten percent through transferring reaction to acceptor) | ++ (a saccharide-transferred product was detected in an amount of at least ten percent through transferring reaction to acceptor)
15 | CO[C@H]1O[C@H](CO)[C@@H](O)[C@H](O)[C@H]1O [Methyl-α-glucopyranoside, methyl-α-glucopyranoside] | ++ (a saccharide-transferred product was detected in an amount of at least ten percent through transferring reaction to acceptor) | ++ (a saccharide-transferred product was detected in an amount of at least ten percent through transferring reaction to acceptor)
16 | CO[C@@H]1O[C@H](CO)[C@@H](O)[C@H](O)[C@H]1O [Methyl-β-glucopyranoside, methyl-β-glucopyranoside] | ++ (a saccharide-transferred product was detected in an amount of at least ten percent through transferring reaction to acceptor) | ++ (a saccharide-transferred product was detected in an amount of at least ten percent through transferring reaction to acceptor)
17 | CC(=O)N[C@H]1C(O)O[C@H](CO)[C@@H](O)[C@@H]1O (some centres unmarked) [N-Acetyl-glucosamine, N-acetyl-glucosamine] | + (a saccharide-transferred product was detected in an amount of at least one percent but less than ten percent through transferring reaction to acceptor) | + (a saccharide-transferred product was detected in an amount of at least one percent but less than ten percent through transferring reaction to acceptor)
18 | OC[C@@H](O)[C@@H](O)[C@H](O)[C@@H](O)CO [Sorbitol, sorbitol] | − | −
19 | OC[C@H]1O[C@@](CO)(O[C@H]2O[C@H](CO)[C@@H](O)[C@H](O)[C@H]2O)[C@@H](O)[C@@H]1O [Sucrose, sucrose] | ++ (a saccharide-transferred product was detected in an amount of at least ten percent through transferring reaction to acceptor) | ++ (a saccharide-transferred product was detected in an amount of at least ten percent through transferring reaction to acceptor)
